Patent US6521654B2, “Substituted imidazolidine derivatives, their preparation, their use and pharmaceutical preparations including them” (Aventis Pharma Deutschland GmbH, priority 1997, dated 2003)

Molecular target: T1, interaction between VCAM-1 and VLA-4 (Homo sapiens, UniProt P05556+P13612)
T1 construct: supplied in their natural form as surface molecules on human U937 cells; host or cells: U937 cells carry endogenous VLA-4; The partner hVCAM-1(1-3)-IgG was made in house in transfected COS cells (ATCC CRL1651) and used as culture supernatant
T1 sequence (P13612 34-1032): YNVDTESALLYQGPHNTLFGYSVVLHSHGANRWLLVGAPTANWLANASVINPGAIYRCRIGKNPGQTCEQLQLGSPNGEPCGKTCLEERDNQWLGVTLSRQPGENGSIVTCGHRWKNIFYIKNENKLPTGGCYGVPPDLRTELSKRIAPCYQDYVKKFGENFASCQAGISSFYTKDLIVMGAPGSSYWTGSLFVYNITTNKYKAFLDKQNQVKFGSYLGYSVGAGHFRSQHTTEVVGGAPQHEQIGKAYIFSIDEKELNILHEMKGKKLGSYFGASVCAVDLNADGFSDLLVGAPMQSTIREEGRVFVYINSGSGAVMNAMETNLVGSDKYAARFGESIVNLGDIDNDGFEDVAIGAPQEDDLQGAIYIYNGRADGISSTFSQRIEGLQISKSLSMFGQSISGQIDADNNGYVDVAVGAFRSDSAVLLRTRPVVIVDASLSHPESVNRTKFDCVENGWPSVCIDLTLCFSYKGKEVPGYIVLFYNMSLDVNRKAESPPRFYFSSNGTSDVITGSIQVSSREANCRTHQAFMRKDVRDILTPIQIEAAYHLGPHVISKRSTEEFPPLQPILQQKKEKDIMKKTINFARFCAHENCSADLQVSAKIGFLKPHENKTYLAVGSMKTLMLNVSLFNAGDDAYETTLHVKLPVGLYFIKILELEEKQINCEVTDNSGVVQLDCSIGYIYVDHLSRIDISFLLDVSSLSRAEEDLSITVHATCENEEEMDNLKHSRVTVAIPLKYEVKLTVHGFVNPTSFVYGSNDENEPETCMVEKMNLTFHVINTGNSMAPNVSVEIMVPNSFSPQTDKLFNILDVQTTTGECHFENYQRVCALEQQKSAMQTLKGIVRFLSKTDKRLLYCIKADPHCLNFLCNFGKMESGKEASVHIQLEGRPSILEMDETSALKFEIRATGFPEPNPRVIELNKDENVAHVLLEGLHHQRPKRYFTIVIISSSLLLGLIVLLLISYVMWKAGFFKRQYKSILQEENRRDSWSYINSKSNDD
T1 sequence (P05556 21-798): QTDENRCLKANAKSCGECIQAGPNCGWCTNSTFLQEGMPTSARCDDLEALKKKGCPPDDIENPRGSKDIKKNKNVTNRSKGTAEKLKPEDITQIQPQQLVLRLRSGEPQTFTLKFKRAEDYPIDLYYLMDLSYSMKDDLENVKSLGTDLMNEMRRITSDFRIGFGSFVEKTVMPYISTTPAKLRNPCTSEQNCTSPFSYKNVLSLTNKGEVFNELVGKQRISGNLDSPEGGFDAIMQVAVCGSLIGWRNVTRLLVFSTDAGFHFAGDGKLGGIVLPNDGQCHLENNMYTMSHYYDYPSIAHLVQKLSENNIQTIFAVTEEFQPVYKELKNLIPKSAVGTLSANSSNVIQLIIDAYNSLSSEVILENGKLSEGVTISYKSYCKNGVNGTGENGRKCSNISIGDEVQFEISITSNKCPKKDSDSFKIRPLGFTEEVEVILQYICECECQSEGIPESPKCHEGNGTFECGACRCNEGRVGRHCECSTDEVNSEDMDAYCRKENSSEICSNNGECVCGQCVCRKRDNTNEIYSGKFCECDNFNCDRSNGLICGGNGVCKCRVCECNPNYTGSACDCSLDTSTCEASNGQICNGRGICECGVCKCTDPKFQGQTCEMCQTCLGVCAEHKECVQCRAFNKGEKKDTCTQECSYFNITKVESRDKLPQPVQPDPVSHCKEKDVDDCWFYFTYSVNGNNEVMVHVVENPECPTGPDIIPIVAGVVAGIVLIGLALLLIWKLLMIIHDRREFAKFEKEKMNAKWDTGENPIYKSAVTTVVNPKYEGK
Experiment: U937/VCAM-1 cell adhesion test (adhesion of U937 cells to hVCAM-1(1-3)-IgG)
Format: cell-based
Details: concentration leading to 50% inhibition of adhesion of human U937 cells (ATCC CRL 1593) to hVCAM-1(1-3)-IgG
Text: The test method used for the activity of the compounds of the formula I on the interaction between VCAM-1 and VLA-4 is the assay described below which is specific for this interaction. The cellular binding components, i.e., the VLA-4 integrins, are supplied in their natural form as surface molecules on human U937 cells (ATCC CRL 1593). which belong to the leucocytes group. The specific binding components used are genetically engineered recombinant soluble fusion proteins, consisting of the extracytoplasmatic domain of human VCAM-1 and the constant region of a human immunoglobulin of the subclass IgG1.
Assay for the Measurement of the Adhesion of U937 Cells (ATCC CRL 1593) to hVCAM-1(1-3)-IgG
1. Preparation of Human VCAM-1 (1-3)-IgG and Human CD4-IgG
A genetic construct for the expression of the extracellular domain of human VCAM-1, associated with the genetic sequence of the heavy chain of human immunoglobulin IgG1 (hinge, CH2 and CH3 regions), from Dr. Brian Seed, Massachusetts General Hospital. Boston, USA was employed (cf. Damle and Aruffo, Proc. Natl. Acad. Sci. USA 1991, 88, 6403-6407). The soluble fusion protein hVCAM-1(1-3)-IgG contained the three amino-terminal extracellular immunoglobulin-like domains of human VCAM-1 (Damle and Aruffo, Proc. Natl. Acad. Sci. USA 1991, 88, 6403-6407). CD4-IgG (Zettimeissl et al., DNA and Cell Biology 1990, 9, 347) served as a fusion protein for negative controls. The recombinant proteins were expressed as soluble proteins after DEAE/dextran-mediated DNA transfection in COS cells (ATCC CRL1651) according to standard procedures (Ausubel et al., Current Protocols in Molecular Biology, John Wiley & Sons, Inc., 1994).
2. Assay for the Measurement of the Adhesion of U937 Cells to hVCAM-1 (1-3)-IgG
2.1 96-well microtiter test plates (Nunc Maxisorb) were incubated at room temperature for 1 hour with 100 μl/well of a goat-anti-human IgG antibody solution (10 μg/ml in 50 mM tris, pH 9.5). After removal of the antibody solution, washing was carried out once with PBS.
2.2 150 μl/well of a blocking buffer (1% BSA in PBS) were incubated on the plates at room temperature for 0.5 hour. After removal of the blocking buffer, washing was carried out once with PBS.
2.3 100 μl per well of a cell culture supernatant of transfected COS cells were incubated on the plates at room temperature for 1.5 hours. The COS cells were transfected with a plasmid which codes for the three N-terminal immunoglobulin-like domains of VCAM-1, coupled to the Fc part of human IgG1 (hVCAM-1 (1-3)-IgG). The content of hVCAM-1 (1-3)-IgG was about 0.5-1 μg/ml. After removal of the culture supernatant, washing was carried out once with PBS.
2.4 The plates were incubated at room temperature for 20 minutes with 100 μl/well of Fc receptor blocking buffer (1 mg/ml of γ-globulin, 100 mM NaCl, 100 μM MgCl2, 100 μM MnCl2, 100 μM CaCl2, 1 mg/ml of BSA in 50 mM HEPES, pH 7.5). After removal of the Fc receptor blocking buffer, washing was carried out once with PBS.
2.5 20 μl of binding buffer (100 mM NaCl, 100 μM MgCl2, 100 μM MnCl2, 100 μM CaCl2, 1 mg/ml of BSA in 50 mM HEPES, pH 7.5) were initially introduced, and the substances to be tested were added in 10 μl of binding buffer and incubated for 20 minutes. The controls used were antibodies against VCAM-1 (BBT, No. BBA6) and against VLA-4 (immunotech, No. 0764).
2.6 U937 cells were incubated in Fc receptor blocking buffer for 20 minutes and then added by pipette in a concentration of 1×10^6/ml and in an amount of 100 μl per well ([…]).
2.7 The plates were slowly immersed at an angle of 45° in stop buffer (100 mM NaCl, 100 μM MgCl2, 100 μM MnCl2, 100 μM CaCl2 in 25 mM tris, pH 7.5) and shaken off. The process was repeated.
2.8 50 μl/well of a dye solution (16.7 μg/ml of Hoechst Dye 33258, 4% formaldehyde, 0.5% triton X-100 in PBS) were then incubated on the plates for 15 minutes. […]

| IC50 [nM] | SMILES |
| --- | --- |
| 7 | Cc1ccccc1NC(=O)Nc1ccc(CN2C(=O)N(CC(=O)N[C@@H](CC(=O)O)c3ccc4c(c3)OCO4)C(=O)C2(C)C)cc1 [Example 93, (S)-3-(2-(4,4-Dimethyl-3-(4-(3-(2-methylphenyl)ureido)benzyl)-2,5-dioxoimidazolidin-1-yl)acetylamino)-3-(3,4-methylenedioxyphenyl)propionic Acid] |
| 22 | Cc1ccccc1NC(=O)Nc1ccc(CN2C(=O)N(CC(=O)NC[C@H](NC(=O)OCc3ccccc3)C(=O)O)C(=O)C2(C)C)cc1 [Example 94] |
| 8 | COc1ccc(C(CC(=O)O)NC(=O)C(CC(C)C)N2C(=O)N(Cc3ccc(NC(=O)Nc4ccccc4C)cc3)C(C)(c3ccccc3)C2=O)cc1OC (centres unmarked) [Example 190] |
| 25 | COc1cccc(C(CC(=O)O)NC(=O)C(CC(C)C)N2C(=O)N(Cc3ccc(NC(=O)Nc4ccccc4C)cc3)C(C)(c3ccccc3)C2=O)c1OC (centres unmarked) [Example 201] |
| 50 | Cc1ccccc1NC(=O)Nc1ccc(CN2C(=O)N(C(CC(C)C)C(=O)NC(CC(=O)O)c3ccc(F)cc3)C(=O)C2(C)c2ccccc2)cc1 (centres unmarked) [Example 192] |
| 25 | Cc1ccccc1NC(=O)Nc1ccc(CN2C(=O)N([C@@H](CC(C)C)C(=O)N[C@@H](CC(=O)O)c3c(F)c(F)c(F)c(F)c3F)C(=O)C2(C)C)cc1 [Example 187] |
| 17 | Cc1ccccc1NC(=O)Nc1ccc(CN2C(=O)N(C(CC(C)C)C(=O)NC(CC(=O)O)c3ccccc3F)C(=O)C2(C)c2ccccc2)cc1 (centres unmarked) [Example 214] |
| 450 | Cc1ccccc1NC(=O)Nc1ccc(CN2C(=O)N(C(CC(C)C)C(=O)NC(CC(=O)O)c3ccc(CC(C)C)cc3)C(=O)C2(C)c2ccccc2)cc1 (centres unmarked) [Example 194] |
| 1.6 | COc1ccc([C@H](CC(=O)O)NC(=O)[C@H](CC(C)C)N2C(=O)N(Cc3ccc(NC(=O)Nc4ccccc4C)cc3)C(C)(C)C2=O)c(OC)c1 [Example 188] |
| 122 | Cc1ccccc1NC(=O)Nc1ccc(CN2C(=O)N(C(CC(C)C)C(=O)NC(CC(=O)O)c3ccc(C(C)(C)C)cc3)C(=O)C2(C)c2ccccc2)cc1 (centres unmarked) [Example 191] |

The next lines start with the molecule.

| SMILES | IC50 [nM] |
| --- | --- |
| CC(C)C[C@@H](C(=O)N[C@@H](CC(=O)O)c1ccccc1)N1C(=O)N(Cc2ccc(NC(=O)Nc3ccccc3)cc2)C(C)(C)C1=O [Example 19] | 3 |
| Cc1ccccc1NC(=O)Nc1ccc(CN2C(=O)N([C@@H](CC(C)C)C(=O)N[C@@H](CC(=O)O)C(=O)N[C@H](C(=O)O)c3ccccc3)C(=O)C2(C)C)cc1 [Example 47, ((S)-2-(4,4-Dimethyl-3-(4-(3-(2-methylphenyl)ureido)benzyl)-2,5-dioxoimidazolidin-1-yl)-2-(2-methylpropyl)acetyl)-L-aspartyl-L-phenylglycine] | 0.85 |
| Cc1ccccc1NC(=O)Nc1ccc(CN2C(=O)N(CC(=O)N(C)[C@@H](CC(=O)O)C(=O)NC3C4CC5CC(C4)CC3C5)C(=O)C2(C)C)cc1 (stereo partly drawn) [Example 22, (2-(4,4-Dimethyl-3-(4-(3-(2-methylphenyl)ureido)benzyl)-2,5-dioxoimidazolidin-1-yl)-acetyl)-N-methyl-L-(2-adamantyl)aspartamide] | 4 |
| Cc1ccccc1NC(=O)Nc1ccc(CN2CC(=O)N(CC(=O)N[C@@H](CC(=O)O)c3ccccc3)C2=O)cc1 [Example 29, (S)3-(2-(3-(4-(3-(2-Methylphenyl)ureido)benzyl)-2,5-dioxoimidazolidin-1-yl)-acetylamino)-3-phenylpropionic Acid] | 890 |
| Cc1ccccc1NC(=O)Nc1ccc(CN2C(=O)N(CC(=O)N[C@@H](CC(=O)O)c3ccccc3)C(=O)C2(C)C)cc1 [Example 11, (S)-3-(2-(4,4-Dimethyl-3-(4-(3-(2-methylphenyl)ureido)benzyl)2,5-dioxoimidazolidin-1-yl)acetylamino)-3-phenylpropionic Acid] | 10 |
| C[C@H](CC(=O)O)NC(=O)[C@H](CC1CC1)N1C(=O)N(Cc2ccc(NC(=O)Nc3ccccc3)cc2)C(C)(C)C1=O [Example 92, (R)-3-((S)-2-(4,4-Dimethyl-3-(4-(3-phenylureido)benzyl)-2,5-dioxoimidazolidin-1-yl)-2-cyclopropylmethylacetylamino)-3-methylpropionic Acid] | 40 |
| Cc1ccccc1NC(=O)Nc1ccc(CN2C(=O)N([C@@H](CC(C)C)C(=O)N[C@@H](CC(=O)O)c3ccc4c(c3)OCO4)C(=O)C2(C)C)cc1 [Example 7, (S)-3-((S)-2-(4,4-Dimethyl-3-(4-(3-(2-methylphenyl)ureido)benzyl)-2,5-dioxoimidazolidin-1-yl)-(2-methylpropyl)acetylamino)-3-(3,4-methylenedioxyphenyl)propionic Acid] | 2.5 |
| Cc1ccccc1NC(=O)Nc1ccc(CN2CC(=O)N(CC(=O)N[C@@H](CC(=O)O)C(=O)NC3C4CC5CC(C4)CC3C5)C2=O)cc1 (some centres unmarked) [Example 21] | 520 |
| Cc1ccccc1NC(=O)Nc1ccc(CN2C(=O)N(CC(=O)NC(C)(C)CC(=O)O)C(=O)C2(C)C)cc1 [Example 91, 3-(2-(4,4-Dimethyl-3-(4-(3-(2-methylphenyl)ureido)benzyl)-2,5-dioxoimidazolidin-1-yl)acetylamino)-3,3-dimethylpropionic Acid] | 210 |
| Cc1ccc(NC(=O)Nc2ccc(CN3C(=O)N(CC(=O)N[C@@H](CC(=O)O)c4ccccc4)C(=O)C3(C)C)cc2)c(C)c1 [Example 43] | 740 |
| CC(C)C[C@@H](C(=O)N[C@@H](CC(=O)O)C(=O)N[C@H](C(=O)O)c1ccccc1)N1C(=O)N(Cc2ccc(NC(=O)Nc3ccccc3F)cc2)C(C)(C)C1=O [Example 67] | 2.3 |
| Cc1ccccc1NC(=O)Nc1ccc(CN2C(=O)N([C@@H](CC(C)C)C(=O)N[C@@H](CC(=O)O)c3ccccc3)C(=O)C2(C)C)cc1 [Example 17, (S)-3-((S)-2-(4,4-Dimethyl-3-(4-(3-(2-methylphenyl)ureido)benzyl)-2,5-dioxoimidazolidin-1-yl)-2-(2-methylpropyl)acetylamino)-3-phenylpropionic Acid] | 1.5 |
| Cc1ccccc1NC(=O)Nc1ccc(CN2C(=O)N([C@@H](C)C(=O)N[C@H](C)CC(=O)O)C(=O)C2(C)C)cc1 [Example 90, (R)-3-((S)-2-(4,4-Dimethyl-3-(4-(3-(2-methylphenyl)ureido)benzyl)-2,5-dioxoimidazolidin-1-yl)-2-methyl-acetylamino)-3-methylpropionic Acid] | 82 |
| Cc1ccccc1NC(=O)Nc1ccc(CN2C(=O)N(CC(=O)N[C@H](C)CC(=O)O)C(=O)C2(C)C)cc1 [Example 9, (R)-3-(2-(4,4-Dimethyl-3-(4-(3-(2-methylphenyl)ureido)benzyl)-2,5-dioxoimidazolidin-1-yl)acetylamino)-3-methylpropionic Acid] | 20 |
| CC(C)C[C@@H](C(=O)N[C@@H](CC(=O)O)C(=O)NC1C2CC3CC(C2)CC1C3)N1C(=O)N(Cc2ccc(NC(=O)Nc3ccccc3)cc2)C(C)(C)C1=O (some centres unmarked) [Example 25] | 6 |
| Cc1cccc(NC(=O)Nc2ccc(CN3C(=O)N(CC(=O)NC(C)CC(=O)O)C(=O)C3(C)C)cc2)c1C (centres unmarked) [Example 34] | 490 |
